This note sets out measurements from patent US20240148821A1, “PHARMACEUTICAL USE OF CYCLIC PEPTIDE COMPOUND” (CHUGAI SEIYAKU KABUSHIKI KAISHA, priority 2021, published 2024).

In assay [1] the target is protein-protein interaction between Kras and SOS1 (biotin-tagged human Kras loaded with GDP, His-tagged human SOS1) (Homo sapiens (Human), UniProt P01116, G12D). The assay can be described thus: Protein-protein interaction inhibition between Kras and SOS1 (KrasG12D-SOS PPI) using AlphaScreen.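 Also: kras produced in E. coli, Ni-coupled donor beads and streptavidin acceptor beads, excitation 680 nm with emission detected at 520–620 nm via singlet oxygen transfer.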 Conditions: AlphaScreen; biotin-tagged human Kras loaded with GDP, His-tagged human SOS1; read-out: KRAS G12D-SOS PPI IC50. In kind it is biochemical. A general note: Bead proximity is the source of the signal in Alpha formats.

Assay [2] has as its system Human pancreatic cancer cell line AsPC-1 (G12D mutation Kras). Put plainly: AsPC-1 cell growth inhibition (AsPC-1 CGI). Type of assay: cell-based. Conditions: read-out: AsPC-1 cell growth inhibition, 50% growth inhibitory concentration (IC50 value); 96 hours, CellTiter-Glo, values classified in ranges. (In ATP-based viability assays light output follows the ATP content of the culture.)
Protocol: Test compounds were serially dilated with dimethyl sulfoxide, and 200 nL was then dispensed to a U-bottom 96-well plate using Labcyte Echo. […] The cell suspension was dispensed to a. plate containing a test compound at 100 μL per well and incubated at 37° C. in a 5% carbon dioxide gas incubator. 96 hours later, 80 μL of CellTiter-Glo (Promega) was added to each well and fluorescence was measured.

Each structure is given as a SMILES string. pIC50: −log10 of the molar value. Bridge positions count the residues as written; N and C are the ends. Square brackets hold non-standard residues; d marks the D form. Peptide text beside a SMILES is read from it. * marks the point of attachment. hPhe(3-Cl-4-CF3) = N[C@@H](CCc1ccc(C(F)(F)F)c(Cl)c1)C(=O)O; hPhe(3-F,4-CF3) = N[C@@H](CCc1ccc(C(F)(F)F)c(F)c1)C(=O)O; NMeAbu(4,4,4-F3) = CN[C@@H](CC(F)(F)F)C(=O)O; NMePhe(4-Me) = CN[C@@H](Cc1ccc(C)cc1)C(=O)O; NMeAla(cPent) = CN[C@@H](CC1CCCC1)C(=O)O; NMeNva(5,5-F2) = CN[C@@H](CCC(F)F)C(=O)O; NMeGly(cPent) = CN[C@H](C(=O)O)C1CCCC1; NMehPhe = CN[C@@H](CCc1ccccc1)C(=O)O; NMeCha = CN[C@@H](CC1CCCCC1)C(=O)O; cisHyp = O=C(O)[C@@H]1C[C@H](O)CN1; NMeI = CC[C@H](C)[C@H](NC)C(=O)O; NMeD = CN[C@@H](CC(=O)O)C(=O)O; NMeL = CN[C@@H](CC(C)C)C(=O)O; NMeV = CN[C@H](C(=O)O)C(C)C; d(β3hA) = C[C@@H](N)CC(=O)O; NMeS = CN[C@@H](CO)C(=O)O; Morpholide = C1CN(*)CCO1; NMeA = CN[C@@H](C)C(=O)O; Piperidide = C1CCN(*)CC1; Pyrrolidide = C1CCN(*)C1; dNMeA = CN[C@H](C)C(=O)O; Ac5c = NC1(C(=O)O)CCCC1; Aze = O=C(O)[C@@H]1CCN1; CH2CMe2OH = CC(C)(O)C*; Aib = CC(C)(N)C(=O)O; Isopentyl = CC(C)CC*; NEtG = CCNCC(=O)O; Sar = CNCC(=O)O

On to `CC(C)C[C@H]1C(=O)N[C@@H](C(C)C)C(=O)N(C)CC(=O)N(C)CC(=O)N(C)[C@@H](CC2CCCCC2)C(=O)N(C)CC(=O)N[C@@H](CCc2ccc(C(F)(F)F)c(F)c2)C(=O)N(C)[C@@H](CC(C)C)C(=O)NC(C)(C)C(=O)N(C)[C@@H](CC(C)C)C(=O)N[C@H](C)CC(=O)N1C` [Compound 1511] (cyclo([Aib][NMeL][d(β3hA)][NMeL]V[Sar][Sar][NMeCha][Sar][hPhe(3-F,4-CF3)][NMeL])), for which the pIC50 in assay [1] is 6.72; in assay [2], < 6.30.
For `CC[C@H](C)[C@@H]1NC(=O)[C@H](CC(C)C)N(C)C(=O)C[C@@H](C)NC(=O)[C@H](C2CCCC2)N(C)C(=O)C2(CCCC2)NC(=O)[C@@H]2CCCN2C(=O)[C@H](CCc2ccc(C(F)(F)F)c(Cl)c2)NC(=O)[C@@H](C)N(C)C(=O)[C@H](Cc2ccc(C)cc2)N(C)C(=O)[C@@H]2CCN2C(=O)CN(C)C1=O` [Compound 1517] (cyclo([Ac5c][NMeGly(cPent)][d(β3hA)][NMeL]I[Sar][Aze][NMePhe(4-Me)][dNMeA][hPhe(3-Cl-4-CF3)]P)), in that order: 7.31 and < 6.30.
For `CC[C@H](C)[C@@H]1NC(=O)[C@H](CC(C)C)N(C)C(=O)C[C@@H](C)NC(=O)[C@H](CC(C)C)N(C)C(=O)C(C)(C)NC(=O)[C@H](COCC(C)(C)O)N(C)C(=O)[C@H](CCc2ccc(C(F)(F)F)c(Cl)c2)NC(=O)CN(C)C(=O)[C@H](COCCC(C)C)N(C)C(=O)CN(C)C(=O)CN(CC)C1=O` [Compound 1519] (cyclo([Aib][NMeL][d(β3hA)][NMeL]I[NEtG][Sar][NMeS](Isopentyl)[Sar][hPhe(3-Cl-4-CF3)][NMeS](CH2CMe2OH))) the same measures were 6.92 and < 6.30.
Turning to `CC[C@H](C)[C@@H]1NC(=O)[C@H](CC(C)C)N(C)C(=O)C[C@@H](C)NC(=O)[C@H](CC(C)C)N(C)C(=O)C2(CCCC2)NC(=O)[C@@H]2C[C@H](O)CN2C(=O)[C@H](CCc2ccc(C(F)(F)F)c(F)c2)NC(=O)CN(C)C(=O)[C@H](CC2CCCCC2)N(C)C(=O)CN(C)C(=O)CN(C)C1=O` [Compound 1529] (cyclo([Ac5c][NMeL][d(β3hA)][NMeL]I[Sar][Sar][NMeCha][Sar][hPhe(3-F,4-CF3)][cisHyp])), the pIC50 in assay [1] was 7.96; in assay [2] it was < 6.30.
For `CC[C@H](C)[C@@H]1NC(=O)[C@H](C)N(C)C(=O)C[C@@H](C)NC(=O)[C@H](C2CCCC2)N(C)C(=O)C2(CCCC2)NC(=O)[C@@H]2CCCN2C(=O)[C@H](CCc2ccc(C(F)(F)F)c(Cl)c2)NC(=O)[C@@H](C)N(C)C(=O)[C@H](Cc2ccc(C)cc2)N(C)C(=O)[C@@H]2CCN2C(=O)[C@H](C)N(C)C1=O` [Compound 1536] (cyclo([Ac5c][NMeGly(cPent)][d(β3hA)][NMeA]I[NMeA][Aze][NMePhe(4-Me)][dNMeA][hPhe(3-Cl-4-CF3)]P)), in that order: 7.68 and < 6.30.
Consider `CC[C@H](C)[C@@H]1NC(=O)[C@H](C)N(C)C(=O)C[C@@H](C)NC(=O)[C@H](C2CCCC2)N(C)C(=O)C2(CCCC2)NC(=O)[C@@H]2CCCN2C(=O)[C@H](CCc2ccc(C(F)(F)F)c(Cl)c2)NC(=O)[C@@H](C)N(C)C(=O)[C@H](CC2CCCCC2)N(C)C(=O)[C@@H]2CCN2C(=O)CN(C)C1=O` [Compound 1539] (cyclo([Ac5c][NMeGly(cPent)][d(β3hA)][NMeA]I[Sar][Aze][NMeCha][dNMeA][hPhe(3-Cl-4-CF3)]P)), for which the pIC50 in assay [1] is 7.27; in assay [2], < 6.30.
For `CC[C@H](C)[C@@H]1NC(=O)[C@H](C)N(C)C(=O)C[C@@H](C(=O)N2CCCCC2)N(C)C(=O)[C@H](C(C)C)N(C)C(=O)C2(CCCC2)NC(=O)[C@@H]2CCCN2C(=O)[C@H](CCc2ccc(C(F)(F)F)c(Cl)c2)NC(=O)CN(C)C(=O)[C@H](CC2CCCCC2)N(C)C(=O)[C@@H]2CCN2C(=O)[C@H](CCc2ccccc2)N(C)C1=O` [Compound 1559] ([NMeA]I[NMehPhe][Aze][NMeCha][Sar][hPhe(3-Cl-4-CF3)]P[Ac5c][NMeV][NMeD]-Piperidide; lactam N-11) the same measures were 7.55 and < 6.30.
For `CC[C@H](C)[C@@H]1NC(=O)[C@H](C)N(C)C(=O)C[C@@H](C(=O)N2CCCCC2)N(C)C(=O)[C@H](C(C)C)N(C)C(=O)C2(CCCC2)NC(=O)[C@@H]2CCCN2C(=O)[C@H](CCc2ccc(C(F)(F)F)c(Cl)c2)NC(=O)CN(C)C(=O)[C@H](CC2CCCCC2)N(C)C(=O)[C@@H]2CCN2C(=O)[C@H](C)N(C)C1=O` [Compound 1562] ([NMeA]I[NMeA][Aze][NMeCha][Sar][hPhe(3-Cl-4-CF3)]P[Ac5c][NMeV][NMeD]-Piperidide; lactam N-11), in that order: 8.32 and < 6.30.
For `CC[C@H](C)[C@@H]1NC(=O)[C@H](C)N(C)C(=O)C[C@@H](C(=O)N2CCCCC2)N(C)C(=O)[C@H](C(C)C)N(C)C(=O)C2(CCCC2)NC(=O)[C@@H]2CCCN2C(=O)[C@H](CCc2ccc(C(F)(F)F)c(Cl)c2)NC(=O)CN(C)C(=O)[C@H](CC2CCCCC2)N(C)C(=O)[C@@H]2CCN2C(=O)[C@H](CC2CCCC2)N(C)C1=O` [Compound 1566] ([NMeA]I[NMeAla(cPent)][Aze][NMeCha][Sar][hPhe(3-Cl-4-CF3)]P[Ac5c][NMeV][NMeD]-Piperidide; lactam N-11) the same measures were 7.70 and < 6.30.
On to `CC[C@H](C)[C@@H]1NC(=O)[C@H](CC(C)C)N(C)C(=O)C[C@@H](C(=O)N2CCCCC2)N(C)C(=O)[C@H](C(C)C)N(C)C(=O)C2(CCCC2)NC(=O)[C@@H]2CCCN2C(=O)[C@H](CCc2ccc(C(F)(F)F)c(Cl)c2)NC(=O)CN(C)C(=O)[C@H](CC2CCCCC2)N(C)C(=O)[C@@H]2CCN2C(=O)[C@H](CC2CCCCC2)N(C)C1=O` [Compound 1574] ([NMeL]I[NMeCha][Aze][NMeCha][Sar][hPhe(3-Cl-4-CF3)]P[Ac5c][NMeV][NMeD]-Piperidide; lactam N-11), for which the pIC50 is 7.46 in assay [1] and < 6.30 in assay [2].
For `CC[C@H](C)[C@@H]1NC(=O)[C@H](CC(C)C)N(C)C(=O)C[C@@H](C(=O)N2CCCC2)N(C)C(=O)[C@H]([C@@H](C)CC)N(C)C(=O)C2(CCCC2)NC(=O)[C@@H]2CCCN2C(=O)[C@H](CCc2ccc(C(F)(F)F)c(Cl)c2)NC(=O)CN(C)C(=O)[C@H](Cc2ccc(C)cc2)N(C)C(=O)[C@@H]2CCN2C(=O)[C@H](C)N(C)C1=O` [Compound 1645] ([NMeL]I[NMeA][Aze][NMePhe(4-Me)][Sar][hPhe(3-Cl-4-CF3)]P[Ac5c][NMeI][NMeD]-Pyrrolidide; lactam N-11), in that order: 9.00 and ≥ 7.70.
For `CC[C@H](C)[C@@H]1NC(=O)[C@H](CC(C)C)N(C)C(=O)C[C@@H](C(=O)N2CCCCC2)N(C)C(=O)[C@H](CCC(F)F)N(C)C(=O)C2(CCCC2)NC(=O)[C@@H]2CCCN2C(=O)[C@H](CCc2ccc(C(F)(F)F)c(Cl)c2)NC(=O)CN(C)C(=O)[C@H](CC2CCCCC2)N(C)C(=O)[C@@H]2CCN2C(=O)[C@H](C)N(C)C1=O` [Compound 1660] ([NMeL]I[NMeA][Aze][NMeCha][Sar][hPhe(3-Cl-4-CF3)]P[Ac5c][NMeNva(5,5-F2)][NMeD]-Piperidide; lactam N-11), in that order: 7.80 and < 6.30.
Turning to `CC[C@H](C)[C@@H]1NC(=O)[C@H](CC(C)C)N(C)C(=O)C[C@@H](C)NC(=O)[C@H]([C@@H](C)CC)N(C)C(=O)C2(CCCC2)NC(=O)[C@@H]2CCCN2C(=O)[C@H](CCc2ccc(C(F)(F)F)c(Cl)c2)NC(=O)CN(C)C(=O)[C@H](Cc2ccc(C)cc2)N(C)C(=O)[C@@H]2CCN2C(=O)[C@H](C)N(C)C1=O` [Compound 1661] (cyclo([Ac5c][NMeI][d(β3hA)][NMeL]I[NMeA][Aze][NMePhe(4-Me)][Sar][hPhe(3-Cl-4-CF3)]P)), the values for the pIC50 in assay [1] and in assay [2] were 8.57 and ≥ 7.70, respectively.
For `CC[C@H](C)[C@@H]1NC(=O)[C@H](C)N(C)C(=O)C[C@@H](C(=O)N2CCOCC2)N(C)C(=O)[C@H](C(C)C)N(C)C(=O)C2(CCCC2)NC(=O)[C@@H]2CCCN2C(=O)[C@H](CCc2ccc(C(F)(F)F)c(Cl)c2)NC(=O)[C@@H](C)N(C)C(=O)[C@H](CC2CCCCC2)N(C)C(=O)[C@@H]2CCN2C(=O)[C@H](C)N(C)C1=O` [Compound 1664] ([NMeA]I[NMeA][Aze][NMeCha][dNMeA][hPhe(3-Cl-4-CF3)]P[Ac5c][NMeV][NMeD]-Morpholide; lactam N-11) the same measures were 8.06 and < 6.30.
For `CC[C@H](C)[C@@H]1NC(=O)[C@H](CC(C)C)N(C)C(=O)C[C@@H](C(=O)N2CCCCC2)N(C)C(=O)[C@H](C(C)C)N(C)C(=O)C2(CCCC2)NC(=O)[C@@H]2CCCN2C(=O)[C@H](CCc2ccc(C(F)(F)F)c(Cl)c2)NC(=O)CN(C)C(=O)[C@H](CC(F)(F)F)N(C)C(=O)[C@@H]2CCN2C(=O)[C@H](C)N(C)C1=O` [Compound 1665] ([NMeL]I[NMeA][Aze][NMeAbu(4,4,4-F3)][Sar][hPhe(3-Cl-4-CF3)]P[Ac5c][NMeV][NMeD]-Piperidide; lactam N-11), in that order: 7.72 and < 6.30.
For `CC[C@H](C)[C@@H]1NC(=O)[C@H](CC(C)C)N(C)C(=O)C[C@@H](C(=O)N2CCCCC2)N(C)C(=O)[C@H](C(C)C)N(C)C(=O)C2(CCCC2)NC(=O)[C@@H]2CCCN2C(=O)[C@H](CCc2ccc(C(F)(F)F)c(Cl)c2)NC(=O)CN(C)C(=O)[C@H](C)N(C)C(=O)[C@@H]2CCN2C(=O)[C@H](C)N(C)C1=O` [Compound 1674] ([NMeL]I[NMeA][Aze][NMeA][Sar][hPhe(3-Cl-4-CF3)]P[Ac5c][NMeV][NMeD]-Piperidide; lactam N-11) the same measures were 7.24 and < 6.30.
